Bridge positions count the residues as written; N and C are the ends. Square brackets hold non-standard residues; d marks the D form. Peptide text beside a SMILES is read from it. Phe(4-COOH) = N[C@@H](Cc1ccc(C(=O)O)cc1)C(=O)O; R8 = C=CCCCCCC[C@@](C)(N)C(=O)O; S5 = C=CCCC[C@](C)(N)C(=O)O; Nle = CCCC[C@H](N)C(=O)O
How the values were obtained:
HRE-bla ME-180 cells [1] = assay: Cell proliferation assay (viability, MTT, 1% FBS); format: cell-based, human
How it was run: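 ME-180 cells (2×10^4/well) in Opti-MEM with 1% FBS were pretreated 16 h under normoxia (21% O2), vehicle 0.5% DMSO final. Incubation then continued under normoxia or hypoxia (1% O2); viable cells quantified by MTT-type CellTiter 96 assay.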

HRE-bla ME-180 cells [2] = assay: Reporter gene assay (HRE-bla ME-180 HIF reporter, GeneBLAzer); format: cell-based, human; settings: for EC50: 24 hour normoxia
How it was run: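 A FRET β-lactamase readout of HIF transcription was used. After compound treatment in 0.3% DMSO/media under normoxic conditions, 20 μl of 6× LiveBLAzer-FRET B/G (CCF4-AM) substrate was added. Plates sat 3 hr at room temperature in the dark and were read at 409 Ex/460Em and 409Ex/530Em on a Synergy 2. Inhibition was compared against DMSO vehicle controls, with chetomin as positive control.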

[3] = target: T1, flag-tagged HIF1α (AA 786-826) / His6-tagged p300 (AA 323-423) complex (Homo sapiens, UniProt Q09472); assay: HIF1α p300 displacement assay (TR FRET, +CHAPS); format: binding; settings: read-out: IC50 (nM) (HIF1α_p300 Displacement + CHAPS)
T1 construct: His6-tagged p300 (AA 323-423); made in house; host or cells: E. coli (pETDuet vector)
How it was run: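 The co-expressed flag-HIF1α (786-826)/His6-p300 (323-423) complex, purified from E. coli with 0.1 mM ZnSO4, was used at 300 nM final with competitor peptides for 1 h at room temperature. Buffer was 150 mM NaCl, 20 mM HEPES pH 7.4, 7.5 mM CHAPS and 1 mM DTT. Anti-Flag-K (0.5 μM) and anti-His-D2 (4 nM) were then added for 2 h, and IC50s were fitted from the TR-FRET ratio.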

| Compound | Viability 1% FBS AVG (MTT V3-24 hr Normoxia) (μM) (HRE-bla ME-180 cells [1]) | 18 h Avg % max inhibition at top conc (HIF Rptr-24 hrs normoxia) (μM) (HRE-bla ME-180 cells [2]) | EC50 (HRE-bla ME-180 cells [2]) | IC50 [3] |
| --- | --- | --- | --- | --- |
| CCCC[C@H](NC(=O)[C@H](CCC(=O)O)NC(=O)[C@]1(C)CCCC=CCCCCCC[C@@](C)(NC(=O)[C@H](CCC(=O)O)NC(=O)[C@H](CC(=O)O)NC(=O)[C@@H](NC(=O)[C@H](CC(N)=O)NC(=O)[C@@H](NC(=O)[C@]2(C)CCCC=CCCCCCC[C@@](C)(NC(=O)[C@H](CCC(=O)O)NC(=O)CNC(=O)[C@H](CCC(N)=O)NC(=O)[C@H](CC(C)C)NC(=O)[C@H](CC(C)C)NC(C)=O)C(=O)N[C@@H](CC(C)C)C(=O)N[C@@H](CC(C)C)C(=O)N[C@@H](CCCNC(=N)N)C(=O)N[C@@H](C)C(=O)N[C@@H](CC(C)C)C(=O)N[C@@H](C)C(=O)N2)C(C)C)[C@@H](C)CC)C(=O)N[C@@H](C(C)C)C(=O)N[C@@H](CC(C)C)C(=O)N[C@@H](CCCC)C(=O)N[C@@H](CO)C(=O)N[C@@H](CC(C)C)C(=O)N[C@@H](C(C)C)C(=O)N1)C(N)=O [SP-354] (Ac-LLQGE[R8]LLRALA[S5]VNIDE[R8]VL[Nle]SLV[S5]E[Nle]-NH2; staple 6-13, 19-26) | ++++ (≥30: ++++) | +++ (≤25 but <50: +++) | > 30 µM | 200 to 400 nM |
| CCCC[C@H](NC(=O)[C@H](CC(C)C)NC(=O)[C@@H](NC(=O)[C@H](CCC(=O)O)NC(=O)[C@H](CCC(=O)O)NC(=O)[C@H](CC(=O)O)NC(=O)[C@@H](NC(=O)[C@H](CC(N)=O)NC(=O)[C@@H](NC(=O)[C@H](CCC(N)=O)NC(=O)[C@H](CC(=O)O)NC(=O)[C@]1(C)CCCC=CCCC[C@](C)(NC(=O)[C@H](CCC(=O)O)NC(=O)[C@H](CCC(=O)O)NC(=O)CNC(=O)[C@H](CCC(N)=O)NC(=O)[C@H](CC(C)C)NC(=O)[C@H](CC(C)C)NC(C)=O)C(=O)N[C@@H](CC(C)C)C(=O)N[C@@H](CCCNC(=N)N)C(=O)N[C@@H](C)C(=O)N1)C(C)C)[C@@H](C)CC)C(C)C)C(=O)N[C@@]1(C)CCCC=CCCC[C@@](C)(C(=O)N[C@@H](CCCC)C(=O)NCC(N)=O)NC(=O)[C@H]([C@@H](C)CC)NC(=O)[C@H](C(C)C)NC(=O)[C@H](CC(C)C)NC1=O [SP-339] (Ac-LLQGEE[S5]LRA[S5]DQVNIDEEVL[Nle][S5]LVI[S5][Nle]G-NH2; staple 7-11, 23-27) | ++++ (≥30: ++++) | + (<10: +) | > 30 µM | 200 to 400 nM |
| CC[C@H](C)[C@H](NC(=O)[C@H](Cc1ccccc1)NC(C)=O)C(=O)N[C@@H](CC(=O)O)C(=O)N[C@@H](Cc1ccc(C(=O)O)cc1)C(=O)N[C@@H](CCC(=O)O)C(=O)N[C@H](C(=O)N[C@@H](CC(C)C)C(=O)N[C@@H](CCSC)C(=O)N[C@@]1(C)CCCC=CCCC[C@@](C)(C(=O)N[C@@H](CCSC)C(=O)N[C@@H](C)C(=O)N[C@@H](Cc2ccccc2)C(N)=O)NC(=O)[C@H]([C@@H](C)CC)NC(=O)[C@H](C(C)C)NC(=O)[C@H](CC(C)C)NC1=O)C(C)C [SP-228] (Ac-FID[Phe(4-COOH)]EVLM[S5]LVI[S5]MAF-NH2; staple 9-13) | ++++ (≥30: ++++) | +++ (≤25 but <50: +++) | > 30 µM | 200 to 400 nM |
| CC[C@H](C)[C@H](NC(=O)[C@H](Cc1ccccc1)NC(C)=O)C(=O)N[C@@H](CC(=O)O)C(=O)N[C@@H](CCC(=O)O)C(=O)N[C@@H](CCC(=O)O)C(=O)N[C@H](C(=O)N[C@@H](CC(C)C)C(=O)N[C@@H](CCSC)C(=O)N[C@@]1(C)CCCC=CCCC[C@@](C)(C(=O)N[C@@H](CCSC)C(=O)N[C@@H](C)C(=O)N[C@@H](CC(C)C)C(=O)N[C@@H](CC(=O)O)C(=O)N[C@@H](CCCNC(=N)N)C(N)=O)NC(=O)[C@H]([C@@H](C)CC)NC(=O)[C@H](C(C)C)NC(=O)[C@H](CC(C)C)NC1=O)C(C)C [SP-281] (Ac-FIDEEVLM[S5]LVI[S5]MALDR-NH2; staple 9-13) | ++++ (≥30: ++++) | ++++ (≥50: ++++) | 5 to 15 µM | 400 to 700 nM |
| CC[C@H](C)[C@H](NC(=O)[C@H](Cc1ccccc1)NC(C)=O)C(=O)N[C@@H](CC(=O)O)C(=O)N[C@@H](CCC(=O)O)C(=O)N[C@@H](CCC(N)=O)C(=O)N[C@H](C(=O)N[C@@H](CC(C)C)C(=O)N[C@@H](CCSC)C(=O)N[C@@]1(C)CCCC=CCCC[C@@](C)(C(=O)N[C@@H](CCSC)C(=O)N[C@@H](C)C(=O)N[C@@H](CC(C)C)C(N)=O)NC(=O)[C@H]([C@@H](C)CC)NC(=O)[C@H](C(C)C)NC(=O)[C@H](CC(C)C)NC1=O)C(C)C [SP-234] (Ac-FIDEQVLM[S5]LVI[S5]MAL-NH2; staple 9-13) | ++++ (≥30: ++++) | +++ (≤25 but <50: +++) | > 30 µM | 400 to 700 nM |
| CCCC[C@H](NC(=O)[C@H](CCC(=O)O)NC(=O)[C@]1(C)CCCC=CCCCCCC[C@@](C)(NC(=O)[C@H](CCC(=O)O)NC(=O)[C@H](CC(=O)O)NC(=O)[C@@H](NC(=O)[C@H](CC(N)=O)NC(=O)[C@@H](NC(=O)[C@H](CCC(N)=O)NC(=O)[C@H](CC(=O)O)NC(=O)[C@]2(C)CCCC=CCCC[C@](C)(NC(=O)[C@H](CCC(=O)O)NC(=O)[C@H](CCC(=O)O)NC(=O)CNC(=O)[C@H](CCC(N)=O)NC(=O)[C@H](CC(C)C)NC(=O)[C@H](CC(C)C)NC(C)=O)C(=O)N[C@@H](CC(C)C)C(=O)N[C@@H](CCCNC(=N)N)C(=O)N[C@@H](C)C(=O)N2)C(C)C)[C@@H](C)CC)C(=O)N[C@@H](C(C)C)C(=O)N[C@@H](CC(C)C)C(=O)N[C@@H](CCCC)C(=O)N[C@@H](CO)C(=O)N[C@@H](CC(C)C)C(=O)N[C@@H](C(C)C)C(=O)N1)C(=O)NCC(N)=O [SP-344] (Ac-LLQGEE[S5]LRA[S5]DQVNIDE[R8]VL[Nle]SLV[S5]E[Nle]G-NH2; staple 7-11, 19-26) | ++++ (≥30: ++++) | + (<10: +) | > 30 µM | 400 to 700 nM |
| CCCC[C@@H]1NC(=O)[C@H](CC(C)C)NC(=O)[C@H](C(C)C)NC(=O)[C@@](C)(NC(=O)[C@H](CCC(=O)O)NC(=O)[C@H](CC(=O)O)NC(=O)[C@@H](NC(=O)[C@H](Cc2ccccc2)NC(C)=O)[C@@H](C)CC)CCCC=CCCCC2(CCCC=CCCC[C@](C)(C(=O)N[C@@H](CCC(N)=O)C(=O)N[C@@H](C)C(=O)N[C@@H](CC(C)C)C(N)=O)NC(=O)[C@H]([C@@H](C)CC)NC(=O)[C@H](C(C)C)NC(=O)[C@H](CC(C)C)NC2=O)NC1=O (stereo partly shown) [SP-212] | ++ (≤5 but <15: ++) | ++++ (≥50: ++++) | 5 to 15 µM | 200 to 400 nM |
| CCCC[C@@H]1NC(=O)[C@H](CC(C)C)NC(=O)[C@](C)(NC(=O)[C@H](CCC(=O)O)NC(=O)[C@H](CCC(=O)O)NC(=O)[C@H](CC(=O)O)NC(=O)[C@@H](NC(=O)[C@H](Cc2ccccc2)NC(C)=O)[C@@H](C)CC)CCCCCCC=CCCC[C@@](C)(C(=O)N[C@@H](CCCC)C(=O)N[C@@H](C)C(=O)N[C@@H](CC(C)C)C(=O)N[C@@H](CC(=O)O)C(=O)N[C@@H](CCCNC(=N)N)C(=O)N[C@H](C(N)=O)[C@@H](C)CC)NC(=O)[C@H]([C@@H](C)CC)NC(=O)[C@H](C(C)C)NC(=O)[C@H](CC(C)C)NC(=O)[C@H](CO)NC1=O [SP-200] (Ac-FIDEE[R8]L[Nle]SLVI[S5][Nle]ALDRI-NH2; staple 6-13) | ++++ (≥30: ++++) | ++++ (≥50: ++++) | > 30 µM | ≤ 200 nM |
| CC[C@H](C)[C@H](NC(=O)[C@H](Cc1ccccc1)NC(C)=O)C(=O)N[C@@H](CC(=O)O)C(=O)N[C@@H](CCC(=O)O)C(=O)N[C@@H](CCC(=O)O)C(=O)N[C@H](C(=O)N[C@@H](CC(C)C)C(=O)N[C@@H](CCSC)C(=O)N[C@@]1(C)CCCC=CCCC[C@@](C)(C(=O)N[C@@H](CCSC)C(=O)N[C@@H](C)C(=O)N[C@@H](CC(C)C)C(=O)N[C@@H](CO)C(=O)N[C@@H](CCCNC(=N)N)C(N)=O)NC(=O)[C@H]([C@@H](C)CC)NC(=O)[C@H](C(C)C)NC(=O)[C@H](CC(C)C)NC1=O)C(C)C [SP-287] (Ac-FIDEEVLM[S5]LVI[S5]MALSR-NH2; staple 9-13) | ++++ (≥30: ++++) | ++++ (≥50: ++++) | 5 to 15 µM | > 700 nM |
| CC[C@H](C)[C@H](NC(=O)[C@H](Cc1ccccc1)NC(C)=O)C(=O)N[C@@H](CC(N)=O)C(=O)N[C@@H](CCC(=O)O)C(=O)N[C@@H](CCCCN)C(=O)N[C@H](C(=O)N[C@@H](CC(C)C)C(=O)N[C@@H](CCSC)C(=O)N[C@@]1(C)CCCC=CCCC[C@@](C)(C(=O)N[C@@H](CCSC)C(=O)N[C@@H](C)C(=O)N[C@@H](CC(C)C)C(=O)N[C@@H](CO)C(=O)N[C@@H](CCCNC(=N)N)C(N)=O)NC(=O)[C@H]([C@@H](C)CC)NC(=O)[C@H](C(C)C)NC(=O)[C@H](CC(C)C)NC1=O)C(C)C [SP-288] (Ac-FINEKVLM[S5]LVI[S5]MALSR-NH2; staple 9-13) | ++++ (≥30: ++++) | + (<10: +) | > 30 µM | > 700 nM |

— patent US20190225650A1, “PEPTIDOMIMETIC MACROCYCLES AND USE THEREOF IN REGULATING HIF1ALPHA” (AILERON THERAPEUTICS, INC., priority 2013, published 2019)
